Measurements from patent publication US8431564B2 (Merck Sharp & Dohme B.V., priority 2009, dated 2013).

These compounds were tested against T1, human FSH receptor (Homo sapiens, UniProt P23945) (assay: Agonistic activity at the human FSH receptor expressed in CHO cells (CRE-luciferase reporter)). Conditions: CHO cells stably transfected with human FSH receptor and CRE/luciferase reporter; 4 hours incubation; pEC50 is -log EC50; read-out: hFSHRago (CHO luc) pEC50 (converted).
T1 construct: expressed in transfected cells; host or cells: CHO (Chinese Hamster Ovary) cells, stably transfected, cotransfected with CRE-luciferase reporter
T1 sequence (P23945 18-695): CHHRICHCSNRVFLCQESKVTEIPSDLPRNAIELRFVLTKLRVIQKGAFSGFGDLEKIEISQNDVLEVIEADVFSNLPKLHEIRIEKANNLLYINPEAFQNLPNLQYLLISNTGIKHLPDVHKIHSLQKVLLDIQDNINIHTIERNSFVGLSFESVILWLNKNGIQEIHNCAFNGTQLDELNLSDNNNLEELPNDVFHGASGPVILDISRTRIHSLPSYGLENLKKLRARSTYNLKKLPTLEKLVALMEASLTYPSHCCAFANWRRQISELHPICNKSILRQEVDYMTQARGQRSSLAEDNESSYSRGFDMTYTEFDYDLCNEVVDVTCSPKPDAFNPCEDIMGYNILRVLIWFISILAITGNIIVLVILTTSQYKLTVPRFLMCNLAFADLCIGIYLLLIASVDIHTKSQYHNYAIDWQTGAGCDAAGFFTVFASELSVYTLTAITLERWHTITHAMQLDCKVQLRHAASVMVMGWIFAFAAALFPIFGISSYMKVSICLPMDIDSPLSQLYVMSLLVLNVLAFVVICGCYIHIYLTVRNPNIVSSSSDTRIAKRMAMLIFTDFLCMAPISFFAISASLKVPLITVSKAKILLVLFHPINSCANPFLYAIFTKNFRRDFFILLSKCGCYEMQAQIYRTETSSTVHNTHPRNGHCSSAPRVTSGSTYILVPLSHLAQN
Assay type: cell-based
How it was run: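 Stably transfected CHO cells with CRE-driven firefly luciferase reporter, incubated 4 h at 37° C. with compound (0.0316 nM–10.0 μM, duplicate, 1% DMSO final) in insulin/transferrin-supplemented medium. Luminescence after lysis; EC50 relative to compound's own maximum, efficacy as percent of recombinant human FSH maximum.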
An EC50 of 9.77 nM was found for `COc1cc2c(cc1C(=O)N1CCOCC1)-c1c(-c3cccs3)c3c(n1CC2)C(=O)N(C(C)(C)C)CCCC3` [Compound 26c4, 9-tert-butyl-3-methoxy-2-(4-morpholinylcarbonyl)-14-(thiophen-2-yl)-5,6,10,11,12,13-hexahydroazocino[4′,3′:4,5]pyrrolo[2,1-a]isoquinolin-8(9H)-one] in this work.
An EC50 of 0.871 nM was found for `COc1cc2c(cc1C(=O)NCC(O)CO)-c1c(-c3cccs3)c3c(n1CC2)C(=O)N(C(C)(C)C)CCCC3` (stereo not shown) [Compound 26c5, 9-tert-butyl-3-methoxy-2-(2,3-dihydroxy-1-propylaminocarbonyl)-14-(thiophen-2-yl)-5,6,10,11,12,13-hexahydroazocino[4′,3′:4,5]pyrrolo[2,1-a]isoquinolin-8(9H)-one] in this work.
An EC50 of 1.07 nM was found for `COCC(O)CNC(=O)c1cc2c(cc1OC)CCn1c3c(c(-c4cccs4)c1-2)CCCCN(C(C)(C)C)C3=O` (stereo not shown) [Compound 26c6, 9-tert-butyl-3-methoxy-2-(2-hydroxy-3-methoxy-1-propylaminocarbonyl)-14-(thiophen-2-yl)-5,6,10,11,12,13-hexahydroazocino[4′,3′:4,5]pyrrolo[2,1-a]isoquinolin-8(9H)-one] in this work.
An EC50 of 0.427 nM was found for `COc1cc2c(cc1C(=O)NCCO)-c1c(-c3cccs3)c3c(n1CC2)C(=O)N(C(C)(C)C)CCCC3` [Compound 26c7, 9-tert-butyl-2-(2-hydroxyethylaminocarbonyl)-3-methoxy-14-(thiophen-2-yl)-5,6,10,11,12,13-hexahydroazocino[4′,3′:4,5]pyrrolo[2,1-a]isoquinolin-8(9H)-one] in this work.
An EC50 of 5.37 nM was found for `COc1cc2c(cc1C(=O)N(C)CCO)-c1c(-c3cccs3)c3c(n1CC2)C(=O)N(C(C)(C)C)CCCC3` [Compound 26c8, 9-tert-butyl-2-(N-2-hydroxyethyl,N-methylaminocarbonyl)-3-methoxy-14-(thiophen-2-yl)-5,6,10,11,12,13-hexahydroazocino[4′,3′:4,5]pyrrolo[2,1-a]isoquinolin-8(9H)-one] in this work.
An EC50 of 0.468 nM was found for `C=CCCNC(=O)c1cc2c(cc1OC)CCn1c3c(c(-c4cccs4)c1-2)CCCCN(C(C)(C)C)C3=O` [Compound 26c9, 9-tert-butyl-2-(4-butenylaminocarbonyl)-3-methoxy-14-(thiophen-2-yl)-5,6,10,11,12,13-hexahydroazocino[4′,3′:4,5]pyrrolo[2,1-a]isoquinolin-8(9H)-one] in this work.
An EC50 of 1.95 nM was found for `COc1cc2c(cc1C(=O)NCCC(O)CO)-c1c(-c3cccs3)c3c(n1CC2)C(=O)N(C(C)(C)C)CCCC3` (stereo not shown) [Compound 26c10, 9-tert-butyl-2-(3,4-dihydroxybutylaminocarbonyl)-3-methoxy-14-(thiophen-2-yl)-5,6,10,11,12,13-hexahydroazocino[4′,3′:4,5]pyrrolo[2,1-a]isoquinolin-8(9H)-one] in this work.
An EC50 of 30.2 nM was found for `COc1cc2c(cc1F)-c1c(-c3cccs3)c3c(n1CC2)C(=O)N(C(C)(C)C)CCCC3` [Compound 27c, 9-tert-butyl-2-fluoro-3-methoxy-14-(thiophen-2-yl)-5,6,10,11,12,13-hexahydroazocino[4′,3′:4,5]pyrrolo[2,1-a]isoquinolin-8(9H)-one] in this work.
An EC50 of 2.63 nM was found for `COc1cc2c(cc1C(=O)CC[C@@H](O)CO)-c1c(-c3cccs3)c3c(n1CC2)C(=O)N(C(C)(C)C)CCCC3` [Compound 28b, (R)-9-tert-butyl-2-(4,5-dihydroxypentanoyl)-3-methoxy-14-(thiophen-2-yl)-5,6,10,11,12,13-hexahydroazocino[4′,3′:4,5]pyrrolo[2,1-a]isoquinolin-8(9H)-one] in this work.
An EC50 of 1.95 nM was found for `COc1cc2c(cc1NS(C)(=O)=O)-c1c(-c3cccs3)c3c(n1CC2)C(=O)N(C(C)(C)C)CCCC3` [Compound 29a, 9-tert-butyl-3-methoxy-2-(methylsulfonamido)-14-(thiophen-2-yl)-5,6,10,11,12,13-hexahydroazocino[4′,3′:4,5]pyrrolo[2,1-a]isoquinolin-8(9H)-one] in this work.
